Experimental data taken from BindingDB's records for doi:10.1016/j.bmcl.2019.05.013 (Daiichi Sankyo, 2019).

molecular target: T1, Solute carrier family 2, facilitated glucose transporter member 4 (Rattus norvegicus, UniProt P19357); assay: Induction of GLUT4 translocation in rat L6-GLUT4myc differentiated myotube cells after 20 mins by chemiluminescent method
T1 sequence (P19357 whole entry): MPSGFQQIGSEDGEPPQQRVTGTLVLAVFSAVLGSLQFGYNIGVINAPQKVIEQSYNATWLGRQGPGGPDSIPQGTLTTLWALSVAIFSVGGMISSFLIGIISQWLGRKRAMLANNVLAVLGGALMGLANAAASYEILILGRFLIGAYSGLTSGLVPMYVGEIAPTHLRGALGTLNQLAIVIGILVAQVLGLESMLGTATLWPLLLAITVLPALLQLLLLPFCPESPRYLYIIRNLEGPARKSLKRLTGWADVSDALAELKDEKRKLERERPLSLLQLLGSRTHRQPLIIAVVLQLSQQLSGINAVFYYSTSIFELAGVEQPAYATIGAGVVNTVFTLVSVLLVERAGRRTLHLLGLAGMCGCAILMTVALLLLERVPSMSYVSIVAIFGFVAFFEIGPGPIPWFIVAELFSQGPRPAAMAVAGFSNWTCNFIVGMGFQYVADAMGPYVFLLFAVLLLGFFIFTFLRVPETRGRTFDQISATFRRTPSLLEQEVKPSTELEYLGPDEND

Row | SMILES | EC50 [nM]
1 | COc1ccccc1-c1nnc(Nc2ccc(CC(N)=O)cc2)c2c1CCC2 | 4700
2 | NC(=O)Cc1ccc(Nc2nnc(-c3ccccc3OCc3cscn3)c3sccc23)c(F)c1 | 110
3 | COc1ccccc1-c1nnc(Nc2ccc(CC(N)=O)cc2F)c2ccsc12 | 650
4 | COCCOCCOc1ccccc1-c1nnc(Nc2ccc(CC(N)=O)cc2F)c2ccsc12 | 230
5 | CC(C)(C)OC(=O)NCCOCCOc1ccccc1-c1nnc(Nc2ccc(CC(N)=O)cc2F)c2ccsc12 | 24
6 | CC(C)(C)NC(=O)NCCOCCOc1ccccc1-c1nnc(Nc2ccc(CC(N)=O)cc2F)c2ccsc12 | 120
7 | NC(=O)Cc1ccc(Nc2nnc(-c3ccccc3OCc3ccccn3)c3sccc23)c(F)c1 | 140
8 | NC(=O)Cc1ccc(Nc2nnc(-c3ccccc3OCC3COCCO3)c3sccc23)c(F)c1 (stereo unspecified) | 76
9 | COCCOc1ccccc1-c1nnc(Nc2ccc(CC(N)=O)cc2F)c2ccsc12 | 140
10 | CC(C)(C)OC(=O)NCCCCOc1ccccc1-c1nnc(Nc2ccc(CC(N)=O)cc2F)c2ccsc12 | 47
11 | CCOC(=O)NCCCCOc1ccccc1-c1nnc(Nc2ccc(CC(N)=O)cc2F)c2ccsc12 | 230
